Results: patent publication US12303509B2, “Compounds for the treatment of BRAF-associated diseases and disorders” (Pfizer Inc., priority 2020, dated 2025)
pIC50: −log10 of the molar value.

Key:
[1] = molecular target: full-length FLAG-tagged B-Raf(V600E) (Homo sapiens (Human), UniProt P15056, V600E); test: BRAF V600E enzyme assay (TR-FRET competitive displacement); format: binding; conditions: averaged IC50; TR-FRET tracer displacement, 60 min
Outline: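 TR-FRET tracer competition: compound (top dose 10 μM, 3-fold, 11 points) incubated 60 min at ambient temperature with FLAG-tagged full-length B-Raf(V600E) (5 nM), Eu anti-FLAG cryptate (0.5 nM) and tracer (50 nM), pH 7.4 HEPES/MgCl2 buffer. 665/615 ratio converted to percent of control; IC50 where fitted curve crosses 50 POC.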

[2] = system: A375 cells; test: Cellular phospho-ERK inhibition assay in A375 cells; format: cell-based; conditions: A375 cells (head prints A357), 2 hours treatment, read-out: A357 cell IC50
Outline: (§1)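 In Cell Western detection of phospho-ERK1/2 (Thr202/Tyr204) over GAPDH after 2 h compound exposure (66 pM to 10 μM, 9 points, 0.25% DMSO) of A375 cells in DMEM or H1755 cells in RPMI, both with 10% FBS. Percent of control set by DMSO and 10 μM binimetinib; 4-parameter IC50.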

[3] = system: H1755 cells; test: Cellular phospho-ERK inhibition assay in H1755 cells; format: cell-based; conditions: 2 hours treatment, read-out: H1755 Cell IC50
Outline: as §1

[4] = system: LLC-PK1 or MDCKII cell monolayer; test: MDR1 LLC-PK1 and BCRP MDCKII permeability assay: permeability coefficient (Papp); format: in vitro ADME; conditions: Papp, test concentration 1 μM, 2 hours incubation
Source text: Final organic concentration in the assay was 1%.

Chain of full-length FLAG-tagged B-Raf(V600E) (P15056 whole entry V600E): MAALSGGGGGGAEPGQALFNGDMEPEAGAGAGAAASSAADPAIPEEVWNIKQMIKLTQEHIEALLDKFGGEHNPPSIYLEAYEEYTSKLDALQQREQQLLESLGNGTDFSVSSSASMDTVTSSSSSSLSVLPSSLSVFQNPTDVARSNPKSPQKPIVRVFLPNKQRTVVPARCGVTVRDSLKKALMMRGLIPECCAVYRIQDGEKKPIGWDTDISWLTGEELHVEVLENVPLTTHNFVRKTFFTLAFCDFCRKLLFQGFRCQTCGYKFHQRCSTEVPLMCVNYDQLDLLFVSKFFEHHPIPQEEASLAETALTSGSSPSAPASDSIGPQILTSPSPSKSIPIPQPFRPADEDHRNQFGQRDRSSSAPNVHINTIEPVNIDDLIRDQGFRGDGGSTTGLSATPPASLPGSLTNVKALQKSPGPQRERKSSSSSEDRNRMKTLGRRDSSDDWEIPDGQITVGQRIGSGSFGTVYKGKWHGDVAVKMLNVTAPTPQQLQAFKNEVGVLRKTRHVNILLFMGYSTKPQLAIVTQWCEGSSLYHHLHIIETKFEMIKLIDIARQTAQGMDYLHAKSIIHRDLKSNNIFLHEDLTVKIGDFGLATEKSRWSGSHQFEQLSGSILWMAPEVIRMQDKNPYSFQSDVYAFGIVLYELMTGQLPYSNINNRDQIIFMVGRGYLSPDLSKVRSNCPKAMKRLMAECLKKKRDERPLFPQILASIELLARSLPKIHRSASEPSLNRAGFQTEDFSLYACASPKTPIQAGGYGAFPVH

pIC50 [1] | pIC50 [2] | pIC50 [3] | Permeability [4] | SMILES
8.00 | 7.92 | 7.10 | 29 *10^−6 cm/s | CN(C)S(=O)(=O)Nc1ccc(F)c(Oc2ccc3ncn(C)c(=O)c3c2F)c1Cl [Example 111, N-(2-chloro-4-fluoro-3-((5-fluoro-3-methyl-4-oxo-3,4-dihydroquinazolin-6-yl)oxy)phenyl)-(N,N-dimethyl)-sulfamide]
7.70 | 7.62 | 6.98 | 28 *10^−6 cm/s | CCN(C)S(=O)(=O)Nc1ccc(F)c(Oc2ccc3ncn(C)c(=O)c3c2F)c1Cl [Example 112, N-(2-chloro-4-fluoro-3-((5-fluoro-3-methyl-4-oxo-3,4-dihydroquinazolin-6-yl)oxy)phenyl)-(N-ethyl-N-methyl)-sulfamide]
